According to patent publication US8853242B2, “Nitrogenous-ring acylguanidine derivative” (Astellas Pharma Inc., priority 2009, dated 2014):
Counter-ions that a name gives are not always drawn.

biological target: human 5-HT5A receptor (Homo sapiens (Human), UniProt P47898); experiment: Test on a human 5-HT5A receptor binding inhibition ([3H]5-CT); details: [3H]5-CT binding inhibition, membrane from HEK293 cells expressing human 5-HT5A receptor; Ki calculated from IC50
Description: The ORF (open reading frame; protein coding region) of a human 5-HT5A receptor (Genbank AF498985) was cloned from a human hippocampus cDNA library, and then inserted into a pCR2.1 vector (Invitrogen), and Escherichia coli containing the plasmid was cultured in a large amount. Next, the full-length cDNA sequence of the human 5-HT5A receptor was analyzed, and recombined into a pCDNA3.1 vector (Invitrogen) as an expression vector and cultured in a large amount. HEK293 established cells (ATCC) derived from the human fetal kidney were seeded, the expression plasmid (1 μg) obtained above were added thereto with LIPOFECTAMINE 2000 (Invitrogen; 2 μl), the gene was transfected into HEK293 cells, and the expression cells were screened with a drug-resistant marker, Geneticin (G418 sulfate 500 μg/ml; Kanto Chemical Co., Inc.). Thus prepared recombinant cells which expressed the gene were cultured in a medium containing D-MEM (Dulbecco's modified eagle medium, Sigma), 10% FCS (Fetal calf serum: fetal bovine serum), 1% Pc./Sm (Penicillin/Streptomycin, Invitrogen), and 500 μg/ml G418 for 3 days. These experimental operations followed a manual for gene operation experiment and an instruction appended in a reagent, and the like, such as a known method (Sambrook, J. et al, Molecular Cloning-A Laboratory Manual”, Cold Spring Harabor laboratory, NY, 1989).
HEK293 cells for forced expressions of a human 5-HT5A receptor were cultured in a F500 plate, and scraped with a scraper. After centrifugation, the precipitate was collected, and an incubation buffer (50 mM Tris (HCl) (pH 7.4), 10 mM MgSO4, and 0.5 mM EDTA (ethylenediamine tetraacetic acid)) was added thereto. After homogenization, it was further centrifuged, and the incubation buffer was added to the precipitate, followed by thoroughly suspending. The operation was repeated, and protein concentration was measured, thereby completing preparation of the membrane.
A solution of the compound to be tested and 100 μM 5-CT (5-carboxamidetriptamine) in DMSO was added to a 96-well plate at 2 μl/well, suspended in an incubation buffer, and a membrane from HEK293 cells for forced expressions of a human 5-HT5A receptor prepared at 200 μg/ml was added at 100 μl/well. After incubation at room temperature for 15 minutes, a [^3H]5-CT solution (2 nM [^3H]5-CT, incubation buffer) was added thereto at 100 μl/well.
Separately, 100 μl of the solution was distributed into a liquid scintillation vial, and 2 ml of Aquasol II (registered trademark) was added thereto, followed by stirring. Then, radioactivity was measured by a liquid scintillation counter. It was incubated at 37° C. for 60 minutes. The reaction mixture was sucked into 96-well GF/C filter plate that had been pre-treated with 0.2% polyethyleneimine, and washed six times with an ice-cooled, 50 mM Tris (pH 7.5) buffer. The GF/C filter plate was dried.
Microscint TMPS (registered trademark) was added thereto at 40 μl/well. Radioactivity remaining on the GF/C filter plate was measured by a top counter.
The [^3H]5-CT binding inhibiting activity by the compound to be tested in each experiment was determined as an IC50 value with a radioactivity upon addition of DMSO alone being 0% inhibition, and a radioactivity upon addition of 1 μM 5-CT being 100% inhibition. Separately, Ki values were calculated from the Kd value of the [^3H]5-CT determined from Scatchard analysis, by the following equation. Ki=IC50(1+Concentraion of ligand added/Kd(4.95 nM))

Sequence of human 5-HT5A receptor (P47898 whole entry): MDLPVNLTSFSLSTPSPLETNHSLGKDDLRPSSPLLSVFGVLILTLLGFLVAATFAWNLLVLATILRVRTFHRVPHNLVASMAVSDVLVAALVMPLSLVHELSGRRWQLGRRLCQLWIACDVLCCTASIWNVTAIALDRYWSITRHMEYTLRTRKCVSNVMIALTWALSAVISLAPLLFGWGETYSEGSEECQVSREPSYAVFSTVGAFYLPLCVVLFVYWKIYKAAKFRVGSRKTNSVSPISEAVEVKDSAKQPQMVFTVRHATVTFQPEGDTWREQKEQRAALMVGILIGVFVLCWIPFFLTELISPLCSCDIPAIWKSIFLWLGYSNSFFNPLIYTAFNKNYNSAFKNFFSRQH

Compared with `NC(N)=NC(=O)c1ccc2ncc(Cl)c(-c3ccc(F)cc3F)c2c1` [Example 60], `NC(N)=NC(=O)c1ccc2c(F)cnc(-c3ccc(F)cc3Cl)c2c1` [Example 151] is 3.2-fold higher in Ki: 1.3 nM for the first, 4.1 nM for the second.

`NC(N)=NC(=O)c1ccc2c(Cl)cnc(-c3c(F)cccc3F)c2c1` [Example 162] and `NC(N)=NC(=O)c1ccc2c(F)cnc(-c3c(F)cccc3Cl)c2c1` [Example 147] are within 1.5-fold of each other in Ki: 1.2 nM for the first, 1.6 nM for the second.

Going from `Cc1cc(-c2c(F)cc(F)cc2F)c2cc(C(=O)N=C(N)N)ccc2n1` [Example 6] to `Cc1cnc(-c2c(F)cc(F)cc2F)c2cc(C(=O)N=C(N)N)ccc12` [Example 152], the Ki falls from 13 nM to 1.3 nM (10-fold). The second binds more tightly here.

Going from `COc1cccc(F)c1-c1ncc(F)c2ccc(C(=O)N=C(N)N)cc12` [Example 159] to `Cc1cnc(-c2c(F)cccc2F)c2cc(C(=O)N=C(N)N)ccc12` [Example 170], the Ki falls from 7.1 nM to 1.9 nM (3.7-fold).

same assay, conditions: [3H]5-CT binding, membrane from HEK293 cells expressing human 5-HT5A receptor; Ki calculated from IC50

`Cc1ccccc1-c1ncc(Cl)c2ccc(C(=O)N=C(N)N)cc12` [Example 213] and `NC(N)=NC(=O)c1ccc2c(Cl)cnc(-c3ccccc3F)c2c1` [Example 175] fall in the same range of Ki: 1 to 10 nM for the first, 1 to 10 nM for the second.

`COc1cc(F)ccc1-c1ncc(F)c2ccc(C(=O)N=C(N)N)cc12` [Example 202] and `COc1cc(F)ccc1-c1ncc(Cl)c2ccc(C(=O)N=C(N)N)cc12` [Example 174] fall in the same range of Ki: 10 to 100 nM for the first, 10 to 100 nM for the second.

First: NC(N)=NC(=O)c1ccc2nccc(-c3cc(F)ccc3Cl)c2c1 [Example 63]
Second: NC(N)=NC(=O)c1ccc2nccc(-c3c(F)cccc3Cl)c2c1 [Example 11]
The Ki of the first is higher: 10 to 100 nM for the first, 1 to 10 nM for the second. The second binds more tightly here.

Compared with `NC(N)=NC(=O)c1ccc2c(C3CC3)cnc(-c3c(F)cccc3F)c2c1` [Example 156], `COc1cnc(-c2c(F)cccc2F)c2cc(C(=O)N=C(N)N)ccc12` [Example 197] is lower in Ki: 10 to 100 nM for the first, 1 to 10 nM for the second.

`Cc1cc(C(=O)N=C(N)N)cc2c(-c3ccc(F)cc3F)c(Cl)cnc12` [Example 99] and `Cc1cc(C(=O)N=C(N)N)cc2c(-c3ccccc3F)c(Cl)cnc12` [Example 101] fall in the same range of Ki: 1 to 10 nM for the first, 1 to 10 nM for the second.

`NC(N)=NC(=O)c1ccc2c(Cl)cnc(-c3ccc(Cl)cc3F)c2c1` [Example 195] and `NC(N)=NC(=O)c1ccc2c(Cl)cnc(-c3cc(F)ccc3F)c2c1` [Example 214] fall in the same range of Ki: 1 to 10 nM for the first, 1 to 10 nM for the second.

First: NC(N)=NC(=O)c1ccc2ccnc(-c3ccccc3)c2c1 [Example 133]
Second: N#Cc1ccccc1-c1nccc2ccc(C(=O)N=C(N)N)cc12 [Example 139]
The Ki of the first is lower: 10 to 100 nM for the first, 100 to 300 nM for the second. The first binds more tightly here.

First: Cc1cc(-c2ccc(F)cc2Cl)c2cc(C(=O)N=C(N)N)cc(C)c2n1 [Example 91]
Second: Cc1cc(-c2c(F)cc(F)cc2Cl)c2cc(C(=O)N=C(N)N)ccc2n1 [Example 124]
The Ki of the first is lower: 1 to 10 nM for the first, 10 to 100 nM for the second. The first binds more tightly here.

`Cc1cc(C(=O)N=C(N)N)cc2c(-c3cccc(Cl)c3Cl)ccnc12` [Example 46] and `Cc1cc(C(=O)N=C(N)N)cc2c(-c3c(Cl)cccc3Cl)ccnc12` [Example 55] fall in the same range of Ki: 1 to 10 nM for the first, 1 to 10 nM for the second.

`Cc1nc2ccc(C(=O)N=C(N)N)cc2c(-c2c(F)cccc2F)c1F` [Example 123] and `Cc1nc2ccc(C(=O)N=C(N)N)cc2c(-c2ccccc2F)c1Cl` [Example 89] fall in the same range of Ki: 1 to 10 nM for the first, 1 to 10 nM for the second.

`Cc1cccc(C)c1-c1ncc(Cl)c2ccc(C(=O)N=C(N)N)cc12` [Example 222] and `COc1cccc(F)c1-c1ncc(Cl)c2ccc(C(=O)N=C(N)N)cc12` [Example 166] fall in the same range of Ki: 1 to 10 nM for the first, 1 to 10 nM for the second.

`NC(N)=NC(=O)c1cc(Cl)c2nccc(-c3c(F)cc(F)cc3F)c2c1` [Example 43] and `NC(N)=NC(=O)c1cc(F)c2nccc(-c3c(F)cc(F)cc3F)c2c1` [Example 54] fall in the same range of Ki: 10 to 100 nM for the first, 10 to 100 nM for the second.

`NC(N)=NC(=O)c1ccc2ncc(Cl)c(-c3ccncc3F)c2c1` [Example 104] and `Cc1cnc2ccc(C(=O)N=C(N)N)cc2c1-c1cccc(F)c1Cl` [Example 61] fall in the same range of Ki: 1 to 10 nM for the first, 1 to 10 nM for the second.

First: N#Cc1ccc(-c2ccnc3ccc(C(=O)N=C(N)N)cc23)cc1 [Example 33]
Second: N#Cc1ccccc1-c1ccnc2ccc(C(=O)N=C(N)N)cc12 [Example 12]
The Ki of the first is lower: 10 to 100 nM for the first, 100 to 300 nM for the second. The first binds more tightly here.

First: NC(N)=NC(=O)c1ccc2ncc(C(F)(F)F)c(-c3ccc(F)cc3F)c2c1 [Example 86]
Second: Cc1cnc2ccc(C(=O)N=C(N)N)cc2c1-c1ccc(F)cc1F [Example 31]
The Ki of the first is higher: 10 to 100 nM for the first, 1 to 10 nM for the second.

Compared with `NC(N)=NC(=O)c1ccc2c(Cl)cnc(-c3cccc(Cl)c3Cl)c2c1` [Example 100], `NC(N)=NC(=O)c1ccc2c(F)cnc(-c3cccc(Cl)c3F)c2c1` [Example 201] is lower in Ki: 10 to 100 nM for the first, 1 to 10 nM for the second.

Compared with `NC(N)=NC(=O)c1ccc2cncc(-c3ccc(F)cc3F)c2c1` [Example 228], `N#Cc1ccc(-c2nccc3ccc(C(=O)N=C(N)N)cc23)c(F)c1` [Example 141] is lower in Ki: 10 to 100 nM for the first, 1 to 10 nM for the second.

`Cc1nc2ccc(C(=O)N=C(N)N)cc2c(-c2ccccc2Cl)c1Cl` [Example 130] and `Cc1cnc2ccc(C(=O)N=C(N)N)cc2c1-c1cccc(Cl)c1Cl` [Example 24] fall in the same range of Ki: 1 to 10 nM for the first, 1 to 10 nM for the second.

First: NC(N)=NC(=O)c1ccc2c(F)cnc(-c3cccc(Cl)c3O)c2c1 [Example 199]
Second: NC(N)=NC(=O)c1ccc2c(F)cnc(-c3cccc(F)c3Cl)c2c1 [Example 200]
The Ki of the first is higher: 10 to 100 nM for the first, 1 to 10 nM for the second. The second binds more tightly here.

`COc1cc(C#N)ccc1-c1c(C)c(C)nc2ccc(C(=O)N=C(N)N)cc12` [Example 120] and `Cc1cc(-c2c(F)cc(F)cc2F)c2cc(C(=O)N=C(N)N)ccc2n1` [Example 6] fall in the same range of Ki: 10 to 100 nM for the first, 10 to 100 nM for the second.

Compared with `NC(N)=NC(=O)c1ccc2c(Cl)cnc(-c3c(F)cc(F)cc3F)c2c1` [Example 142], `NC(N)=NC(=O)c1ccc2c(CO)cnc(-c3c(F)cc(F)cc3F)c2c1` [Example 2, N-(diaminomethylene)-4-(hydroxymethyl)-1-(2,4,6-trifluorophenyl)isoquinoline-7-carboxamide fumarate] is higher in Ki: 1 to 10 nM for the first, 10 to 100 nM for the second. The first binds more tightly here.

Compared with `NC(N)=NC(=O)c1ccc2c(C(F)(F)F)cnc(-c3c(F)cccc3F)c2c1` [Example 196], `COc1cccc(F)c1-c1ncc(F)c2ccc(C(=O)N=C(N)N)cc12` [Example 159] is lower in Ki: 10 to 100 nM for the first, 1 to 10 nM for the second.

`CN/C(N)=N/C(=O)c1ccc2nccc(-c3c(F)cc(F)cc3F)c2c1` [Example 3, N-[1-amino(methylamino)methylene]-4-(2,4,6-trifluorophenyl)quinoline-6-carboxamide dihydrochloride] and `NC(N)=NC(=O)c1ccc2nccc(-c3c(F)cc(F)cc3F)c2c1` [Example 5] fall in the same range of Ki: 1 to 10 nM for the first, 1 to 10 nM for the second.

`NC(N)=NC(=O)c1ccc2c(F)cnc(-c3ccc(Cl)cc3)c2c1` [Example 191] and `NC(N)=NC(=O)c1ccc2c(C(F)F)cnc(-c3ccccc3F)c2c1` [Example 215] fall in the same range of Ki: 10 to 100 nM for the first, 10 to 100 nM for the second.

`NC(N)=NC(=O)c1ccc2ncc(Cl)c(C3=CCCCC3)c2c1` [Example 102] and `NC(N)=NC(=O)c1ccc2c(Cl)cnc(C3CC3)c2c1` [Example 198] fall in the same range of Ki: 1 to 10 nM for the first, 1 to 10 nM for the second.

Compared with `COc1cc(F)c(-c2ccnc3ccc(C(=O)N=C(N)N)cc23)c(F)c1` [Example 59], `NC(N)=NC(=O)c1ccc2nccc(-c3c(Cl)cc(Cl)cc3Cl)c2c1` [Example 27] is lower in Ki: 10 to 100 nM for the first, 1 to 10 nM for the second.

Compared with `NC(N)=NC(=O)c1ccc2nccc(-c3ccc(F)c(C(F)(F)F)c3)c2c1` [Example 37], `NC(N)=NC(=O)c1ccc2nccc(-c3c(Cl)cccc3Cl)c2c1` [Example 19] is lower in Ki: 100 to 300 nM for the first, 1 to 10 nM for the second.

First: Cc1cc(C(=O)N=C(N)N)cc2c(-c3c(F)cc(F)cc3F)ccnc12 [Example 39]
Second: Cc1ccc(-c2ccnc3c(C)cc(C(=O)N=C(N)N)cc23)c(F)c1 [Example 68]
The Ki of the first is lower: 1 to 10 nM for the first, 10 to 100 nM for the second. The first binds more tightly here.

First: NC(N)=NC(=O)c1ccc2cccc(-c3c(F)cc(F)cc3F)c2n1 [Example 226]
Second: NC(N)=NC(=O)c1ccc2cccc(-c3ccccc3)c2n1 [Example 225]
The Ki of the first is lower: 1 to 10 nM for the first, 100 to 300 nM for the second. The first binds more tightly here.

First: Cc1cc(C(=O)N=C(N)N)cc2c(C3CC3)c(Cl)cnc12 [Example 103]
Second: NC(N)=NC(=O)c1ccc2ccnc(-c3c(F)cccc3Cl)c2c1 [Example 134]
The Ki of the first is higher: 10 to 100 nM for the first, 1 to 10 nM for the second. The second binds more tightly here.

Compound `N#Cc1cc(Cl)ccc1-c1nccc2ccc(C(=O)N=C(N)N)cc12` [Example 140] has a Ki of 10 to 100 nM.
